Measured values reported in patent publication US6679922B1, “Pesticide protective articles” (priority 1998, dated 2004).
Values joined by “and” are separate entries in the source; they are usually repeats but may differ in a detail not shown here. Equal entries are not always repeated.

Assays:
[1] = Pesticide reduction at various pesticide/chlorine ratios; conditions: Pesticide/Chlorine Ratio 1:4
Excerpt: In certain aspects, the concentration of the pesticide (e.g., methomyl) that was exposed to the fabric was proportional to the percent reduction of the pesticide. Without being bound by a particular theory, it is believed that the pesticide/halamine ratio is more critical to reduction than the actual contact time of the pesticide with the fabric. A pesticide to halamine ratio of about 10:1 to about 1:10 is suitable for the present methods, preferably, a ratio of about 5:1 to about 1:5 is used and, more preferably, a ratio of about […] is used.

[2] = Detoxification of pesticides on cotton/polyester fabrics treated with DMDMH and chlorine bleach, percentage reduction by GC; conditions: 6% DMDMH, 5 min contact
Experimental: Polyester/cotton fabrics were washed in a domestic washing machine at 50° C. prior to the actual treatment of the functional compounds.
The grafting of hydantoin ring onto the cotton/polyester fabrics was carried out using a wet finishing process. The weighed fabrics were submerged into an aqueous 6% (w/w) DMDMH solution for 5 min. and then wringed through a padder to secure a wet pickup of 70-100% through a 2 dip-2 nip cycle. These wet fabrics were then oven-dried at 85° C. for 5 min. and cured at 150° C. for 5 min. Following this, the fabrics were washed in water at 50° C. for 30 min. to remove any excess chemicals on the surface of the fabrics.
After the wet finishing process, the treated fabrics were bleached with solutions containing 0.01% and 0.1% (w/v) active chlorine content. The treated fabrics were submerged into aqueous bleach solution at one of the specified concentrations at 25° C. for 15 min. Then, the fabrics were air dried and stored at standard condition (25° C., 65% relative humidity). The chemically finished fabrics were then cut into 3×3 inches square swatches for exposure to pesticides in the subsequent testing.
Methomyl and aldicarb were dissolved in methanol at three different concentrations: 250, 500 and 1000 ppm. One mL of one of these pesticide solutions was directly loaded onto a fabric swatch. A contact time of 5 min. was allowed before the exposed fabric was extracted in organic solvent for detoxification assessment and degradation analysis. Fabrics that were not treated with DMDMH and bleach were also used as control samples.
The extraction of the exposed swatches was done by soaking a swatch into an initial volume of 50 mL ethyl acetate for 15 min. with vigorous agitation. The extraction was repeated with another 50 mL of ethyl acetate; the combined 100 mL of the extracted solvent was reduced to 2 mL in volume by rotor-evaporation under partial vacuum at 40° C. To this 2-mL sample, 1 μL of 2-ethyl-5-methyl pyridine was added as an internal standard for quantitation during the chromatographic analysis. After which, 1 μL of the extracted sample was injected into a gas chromatograph.
Gas chromatography was performed on a Hewlett Packard 5890 series II GC, equipped with a nitrogen-phosphorus detector (NPD), using a 15 m×0.25 mm I.D. DB-1 column, 0.25 μm film (J&W Co.). The temperature program was initially set at 100° C. for 3 min., raised at a rate of 7° C./min. to 250° C. and held for 5 min. The injector and detector were set at 250° C. and 280° C. respectively. Helium was used as the carrier gas at a flow rate of 0.84 mL/min; hydrogen flow rate was 2.98 mL/min; nitrogen flow rate was 29.16 mL/min. A split injection was used at a split ratio of 25:1. The responses of the resulting peak areas and relative peak areas were integrated and recorded using a HP 3396 II integrator. For each sample, at least three or more repetitions at each condition were carried out.
Using the materials and methods sets forth above, three different concentrations of methomyl were detoxified by halamine structures on the fabrics. Relative peak area response factors (peak area response of pesticide divided by peak area response of internal standard) of the control fabrics were used to determine the original amount of pesticide on the fabrics at 0% reduction. […] After this difference was divided by the original amount, it was expressed as the percentage reduction of pesticide at those various concentrations.

[3] = cited from earlier work
[4] = chlorine/methomyl ratio of 10 to 1; cited from earlier work
male rats = conditions: cited from earlier work

## CNC(=O)Oc1cccc2c1OC(C)(C)C2 [Carbofuran]
[1]
  Pesticide Reduction (%): 13.82%

## CNC(=O)Oc1cccc2ccccc12 [Carbaryl]
[1]
  Pesticide Reduction (%): 8.02%

## CNC(=O)ON=C(C)SC [Methomyl, S-methyl N-(methyl carbamoyloxy) thioacetimidatel]
[2]; 250 ppm pesticide, 0.01% active chlorine treatment
  percentage reduction of pesticide: 9.35% and 9.4%
[2]; 250 ppm pesticide, 0.1% active chlorine treatment
  percentage reduction of pesticide: 19.9%
[2]; 500 ppm pesticide, 0.1% active chlorine treatment
  percentage reduction of pesticide: 18.6%
[2]; 1000 ppm pesticide, 0.01% active chlorine treatment
  percentage reduction of pesticide: 4.43% and 4.4%
[2]; 1000 ppm pesticide, 0.1% active chlorine treatment
  percentage reduction of pesticide: 11.63% and 11.6%
[1]
  Pesticide Reduction (%): 79.52%
[3]
  Vapor Pressure mm Hg (25-30° C.): 5 × 10^−5 mm Hg
[4]
  disappearance in aqueous solution: disappear rapidly
Male rats
  Toxicity, mg/kg (LD50, male rats): 21 mg/kg
